This is an account of results in patent US7897772B2, “Acid addition salt of irinotecan” (priority 2004, dated 2011).

Broadly, the Cmax is the highest concentration seen after dosing. The term Tmax denotes the time at which the peak concentration occurs. One may read the bioavailability as dose-corrected exposure relative to a reference, in per cent.

Where a name gives a salt, the structure may show the parent alone.

A short description of series [1]: Dissolution of irinotecan acid addition salts in water at 100 mg/mL at room temperature and state of the solution after 6 days of stirring (Example 1). The class given is physicochemical. The conditions noted are these: for Dissolution of the salt in water at room temperature: salt content adjusted to 100 mg/mL, no heating; for State of the Solution after Day 6: 100 mg/mL aqueous solution, membrane-filtered, stirred at room temperature (25° C.) for 6 days, visually observed. As for the experimental part: To an aqueous suspension of irinotecan (1-ethyl-10-[4-(1-piperidino)-1-piperidino]carbonyloxycamptothecin) produced through the method disclosed in Patent Document 1, each acid species was added, to thereby produce a corresponding irinotecan acid addition salt. The irinotecan acid addition salt content was adjusted to 100 mg/mL. […] Each of the aqueous solutions employing sulfuric acid, phosphoric acid methanesulfonic acid, citric acid, maleic acid, and succinic acid, respectively, was filtered by a membrane filter, and the filtrate was stirred at room temperature (25° C.). After continuous stirring for 6 days, the aqueous solution was visually observed so as to evaluate the state of the solution.

Series [2] can be described thus: Peroral absorbability in beagles: plasma irinotecan level and pharmacokinetic analysis (Example 6). The format is in vivo. The source says: To each beagle, a solid chow (about 350 g) was fed once a day at around 3 p.m., and the unconsumed chow was removed at around 9 a.m. on the following day, except that on the day before the day of administration the unconsumed chow was removed about two hours after feeding. On the day of administration, blood was drawn three hours after administration and the chow was fed after blood collection. On the day after the day of administration, the unconsumed chow was removed at 9 a.m.
After administration, tap water (about 20 mL) was fed to the mouth of the beagle by use of an injection syringe.
The thus-collected blood samples were dispensed into 1.5-mL tubes, to which heparin sodium (20 μL, 20 units) had been added in advance and which had been dried under nitrogen flow (tubes employed for the first administration were not dried). The samples were centrifuged (4° C., about 13,000×g, one minute) to thereby obtain plasma.
The lower quantification limit was […] plasma.
Non-compartmental analysis of the obtained data was performed by use of a WinNonlin Ver4.1. Data of the following pharmacokinetic parameters were obtained.
Final phase half-time (T1/2),
Time to reach maximum plasma level (Tmax),
Maximum plasma level (Cmax),
Area under time-level curve to infinite time (AUC0-inf),
Bioavailability (BA), wherein
Mean absorption time (MAT), wherein
MAT(h)=(mean residence time (MRT0-inf) after oral administration)−(mean residence time (MRT0-inf) after intravenous injection).

Series [3] in a line: Three-month room-temperature storage of 20, 30 and 40 mg/mL aqueous solutions, visual observation (Example 5). The format is physicochemical. The conditions noted are these: three months. An excerpt: The filtrate was allowed to stand at room temperature for three months, and the aqueous solution after storage was visually observed so as to evaluate the solution state.
The mark [4] stands for this setting: peroral capsule, 10 mg/kg as irinotecan, 20 min after administration.
Setting [5] is: peroral, 10 mg/kg as irinotecan.
The mark [6] stands for this setting: peroral, 10 mg/kg as irinotecan, mean ± SD (number of samples in parentheses), 10 mg/kg.
Setting [7] is: peroral, 10 mg/kg as irinotecan, mean ± SD (number of samples in parentheses), listed as irinotecan methanesulfonic acid addition salt, 10 mg/kg.
Setting [8] is: peroral, 10 mg/kg as irinotecan, mean ± SD (number of samples in parentheses), listed as irinotecan sulfuric acid addition salt, 10 mg/kg.

`CCc1c2c(nc3ccc(OC(=O)N4CCC(N5CCCCC5)CC4)cc13)-c1cc3c(c(=O)n1C2)COC(=O)[C@]3(O)CC` [Irinotecan (7-ethyl-10-[4-(1-piperidino)-1-piperidino]carboxyoxycamptothecin) hydrochloride, reference compound]: in series [1] (listed as hydrochloric acid, hydrochloride), the “Dissolution of the salt in water at room temperature” value (shortened to “Dissolution of the salt in water”) is given as “not dissolved in water at room temperature”. Moreover, in series [2] (male, beagle, dog, plasma, oral, 10 mg/kg, peroral, 10 mg/kg as irinotecan, 3 h, mean (n=6) ± SD), the concentration at 3 h is 2.01 ± 0.45 µg/mL. Also, the concentration at 4 h in series [2] (male, beagle, dog, plasma, oral, 10 mg/kg, peroral, 10 mg/kg as irinotecan, 4 h, mean (n=6) ± SD) was determined as 1.62 ± 0.39 µg/mL. The compound further came in with a concentration at 6 h in series [2] (male, beagle, dog, plasma, oral, 10 mg/kg, peroral, 10 mg/kg as irinotecan, 6 h, mean (n=6) ± SD) of 0.947 ± 0.363 µg/mL. In series [2] (male, beagle, dog, plasma, oral, 10 mg/kg, peroral, 10 mg/kg as irinotecan, 8 h, mean (n=6) ± SD), this compound had a concentration at 8 h of 0.538 ± 0.264 µg/mL. For the same compound, the concentration at 12 h in series [2] (male, beagle, dog, plasma, oral, 10 mg/kg, peroral, 10 mg/kg as irinotecan, 12 h, mean (n=6) ± SD) was determined as 0.179 ± 0.138 µg/mL. In addition, the AUC(0-inf) in series [2] (male, beagle, dog, plasma, po, 10 mg/kg, peroral, 10 mg/kg as irinotecan, mean ± SD (number of samples in parentheses), read-out: AUC0-inf (area under time-level curve to infinite time)) came to 11.2 µg·h/mL. Moreover, the Cmax in series [2] (male, beagle, dog, plasma, po, 10 mg/kg, peroral, 10 mg/kg as irinotecan, mean ± SD (number of samples in parentheses), read-out: Cmax (maximum plasma level)) came out at 2.03 µg/mL. Moreover, in series [2] (male, beagle, dog, plasma, po, 10 mg/kg, peroral, 10 mg/kg as irinotecan, mean ± SD (number of samples in parentheses), read-out: Tmax (time to reach maximum plasma level)), the Tmax turned out to be 2.83 ± 0.41 h. For the same compound, the “BA (bioavailability)” value in series [2] (peroral 10 mg/kg as irinotecan, AUC0-inf oral ÷ AUC0-inf intravenous × 100, listed as irinotecan hydrochloric acid addition salt, hydrochloride) turned out to be 48.80%. Moreover, the “Plasma irinotecan level (no mean given)” value in series [2] (peroral capsule, 10 mg/kg as irinotecan, 10 min after administration, hydrochloride, 10 mg/kg) was “—^b) (≧3 Beagles of a group consisting of six beagles exhibited a plasma level of ≦5 ng/mL.)”; in series [2] (setting [4]), “— (≧3 Beagles of a group consisting of six beagles exhibited a plasma level of ≦5 ng/mL.)”.
In the case of `CCc1c2c(nc3ccc(OC(=O)N4CCC(N5CCCCC5)CC4)cc13)-c1cc3c(c(=O)n1C2)COC(=O)[C@]3(O)CC` [Irinotecan citric acid addition salt, irinotecan citric acid salt], in series [1], the “State of the Solution after Day 6” value is “No crystal deposited”. Moreover, in series [1] (listed as citric acid), the “Dissolution of the salt in water” value is “dissolved in water at room temperature”.
In the case of `CCc1c2c(nc3ccc(OC(=O)N4CCC(N5CCCCC5)CC4)cc13)-c1cc3c(c(=O)n1C2)COC(=O)[C@]3(O)CC` [Irinotecan fumaric acid addition salt, reference compound], the “Dissolution of the salt in water” value in series [1] (listed as fumaric acid) is given as “not dissolved in water at room temperature”.
As to `CCc1c2c(nc3ccc(OC(=O)N4CCC(N5CCCCC5)CC4)cc13)-c1cc3c(c(=O)n1C2)COC(=O)[C@]3(O)CC` [Irinotecan maleic acid addition salt, irinotecan maleic acid salt], the “Dissolution of the salt in water” value in series [1] (listed as maleic acid) is listed as “dissolved in water at room temperature”.
Regarding `CCc1c2c(nc3ccc(OC(=O)N4CCC(N5CCCCC5)CC4)cc13)-c1cc3c(c(=O)n1C2)COC(=O)[C@]3(O)CC` [Irinotecan methanesulfonic acid addition salt] [irinotecan methanesulfonic acid salt], in series [1], the “State of the Solution after Day 6” value is on record as “No crystal deposited” and the “Dissolution of the salt in water” value is reported as “dissolved in water at room temperature”. Moreover, the “Plasma irinotecan level (no mean given)” value in series [2] (peroral capsule, 10 mg/kg as irinotecan, 10 min after administration, 10 mg/kg) is recorded as “— (≧3 Beagles of a group consisting of six beagles exhibited a plasma level of ≦5 ng/mL.)”. For the same compound, in series [2] (setting [4]), the “Plasma irinotecan level (no mean given)” value was “— (≧3 Beagles of a group consisting of six beagles exhibited a plasma level of ≦5 ng/mL.)”. Further, the “Time after administration at which the plasma level reached the maximum (mean profile, text)” value in series [2] (setting [5]) is recorded as “two”. Also, in series [2] (setting [6]), the “AUC0-inf (area under time-level curve to infinite time)” value (“AUC0-inf” for short) is listed as 17.58 ± 2.08(5)^$ μg · h/mL and the “Tmax (time to reach maximum plasma level)” value is 2.17 ± 0.41(6) h. For the same compound, in series [2] (setting [7]), the “AUC0-inf” value stood at 17.68 µg·h/mL and the “Cmax (maximum plasma level)” value is 3.47 µg/mL.
On to `CCc1c2c(nc3ccc(OC(=O)N4CCC(N5CCCCC5)CC4)cc13)-c1cc3c(c(=O)n1C2)COC(=O)[C@]3(O)CC` [Irinotecan phosphoric acid addition salt, irinotecan phosphoric acid salt], for which the “Dissolution of the salt in water” value in series [1] (listed as phosphoric acid) was “dissolved in water at room temperature”.
Regarding `CCc1c2c(nc3ccc(OC(=O)N4CCC(N5CCCCC5)CC4)cc13)-c1cc3c(c(=O)n1C2)COC(=O)[C@]3(O)CC` [Irinotecan succinic acid addition salt, irinotecan succinic acid salt], in series [1] (listed as succinic acid), the “Dissolution of the salt in water” value was “dissolved in water at room temperature”.
Turning to `CCc1c2c(nc3ccc(OC(=O)N4CCC(N5CCCCC5)CC4)cc13)-c1cc3c(c(=O)n1C2)COC(=O)[C@]3(O)CC` [Irinotecan sulfuric acid addition salt, irinotecan sulfuric acid salt], in series [1], the “State of the Solution after Day 6” value is reported as “No crystal deposited” and the “Dissolution of the salt in water” value is listed as “dissolved in water at room temperature”. This compound registered a concentration at 10 min in series [2] (male, beagle, dog, plasma, oral, 10 mg/kg, peroral capsule, 10 mg/kg as irinotecan, 10 min after administration, mean (n=6) ± SD) of 0.126 ± 0.112 µg/mL. This compound also displayed a concentration at 20 min in series [2] (male, beagle, dog, plasma, oral, 10 mg/kg, peroral capsule, 10 mg/kg as irinotecan, 20 min after administration, mean (n=6) ± SD) of 1.56 ± 1.55 µg/mL. Also, the concentration at 20 min in series [2] (male, beagle, dog, plasma, oral, 10 mg/kg, peroral, 10 mg/kg as irinotecan, twenty minutes after administration) is 1.56 µg/mL. For the same compound, in series [2] (peroral 10 mg/kg as irinotecan, AUC0-inf oral ÷ AUC0-inf intravenous × 100), the “BA (bioavailability)” value is 70.14%. For the same compound, in series [2] (setting [5]), the “Time after administration at which the plasma level became measurable” value was 10 min. Moreover, the “Plasma irinotecan level maintained” value in series [2] (peroral, 10 mg/kg as irinotecan, from hour 1 to hour 3) was at least 3 µg/mL. For the same compound, in series [2] (setting [6]), the “AUC0-inf” value is on record as 18.54 ± 1.59(5)^$ μg · h/mL and the “Tmax (time to reach maximum plasma level)” value is 2.33 ± 0.52(6) h. Also, in series [2] (setting [8]), the “AUC0-inf” value is 13.54 µg·h/mL and the “Cmax (maximum plasma level)” value came out at 3.67 µg/mL.
For the compound `CCc1c2c(nc3ccc(OC(=O)N4CCC(N5CCCCC5)CC4)cc13)-c1cc3c(c(=O)n1C2)COC(=O)[C@]3(O)CC.O=[N+]([O-])O` [Nitric acid addition salt (1), irinotecan nitric acid salt], the “Solution state after storage” value in series [3] (20 mg/mL aqueous solution) is on record as “−”; in series [3] (30 mg/mL aqueous solution), “−”; in series [3] (40 mg/mL aqueous solution), “+”.
On to `CCc1c2c(nc3ccc(OC(=O)N4CCC(N5CCCCC5)CC4)cc13)-c1cc3c(c(=O)n1C2)COC(=O)[C@]3(O)CC.O=[N+]([O-])O` [Nitric acid addition salt (2), irinotecan nitric acid salt], for which the “Solution state after storage” value in series [3] (20 mg/mL aqueous solution), in series [3] (30 mg/mL aqueous solution) and in series [3] (40 mg/mL aqueous solution) was “−” each time.
Consider `CCc1c2c(nc3ccc(OC(=O)N4CCC(N5CCCCC5)CC4)cc13)-c1cc3c(c(=O)n1C2)COC(=O)[C@]3(O)CC.O=P(O)(O)O` [Phosphoric acid addition salt (2), irinotecan phosphoric acid salt], for which the “Solution state after storage” value in series [3] (20 mg/mL aqueous solution), in series [3] (30 mg/mL aqueous solution) and in series [3] (40 mg/mL aqueous solution) was “−” throughout.
As to `CCc1c2c(nc3ccc(OC(=O)N4CCC(N5CCCCC5)CC4)cc13)-c1cc3c(c(=O)n1C2)COC(=O)C3(O)CC.O=S(=O)(O)O` (stereo not shown) [Sulfuric acid addition salt (2), irinotecan sulfuric acid salt], the “Solution state after storage” value in series [3] (20 mg/mL aqueous solution), in series [3] (30 mg/mL aqueous solution) and in series [3] (40 mg/mL aqueous solution) was “−” throughout.
Turning to `CCc1c2c(nc3ccc(OC(=O)N4CCC(N5CCCCC5)CC4)cc13)-c1cc3c(c(=O)n1C2)COC(=O)[C@]3(O)CC` [irinotecan methanesulfonic acid salt], in series [2] (male, beagle, dog, plasma, po, 10 mg/kg, peroral 10 mg/kg as irinotecan, AUC0-inf oral ÷ AUC0-inf intravenous × 100, read-out: BA (bioavailability)), the bioavailability is 61 ± 3.84%.
